Experimental data published in patent publication US20210293769A1, “METHOD FOR CULTURING CANCER TISSUE OR TISSUE ANALOGOUS TO CANCER TISSUE” (Chugai Seiyaku Kabushiki Kaisha, priority 2018, published 2021).

Key:
Format in all cases: cell-based, human
LGR5 = assay: FACS measurement of LGR5 expression in organoids; details: organoids immediately after SN-38 treatment; FIG. 8
Method: […] […] […] The resulting cells were reacted with 2 μg/mL anti-LGR5 antibody (clone 2L36 (Stem Cells, 30, 2631-2644 (2012))) or control mouse IgG2a antibody (clone MG2a-53, Cat #401502, BioLegend) at 4° C. for 1 hour, and then reacted with a PE-labeled secondary antibody (Cat #P-21139, Thermo Fisher Scientific) for 30 minutes at 4° C. Then dead cells were stained with 7-AAD Viability Dye (Cat #A07704, Beckman Coulter) and measured with a flow cytometer (BD FACSAria III, BD Biosciences). PBS containing 2% fetal bovine serum and 0.1% NaN3 was used as the buffer. Data were analyzed using BD FACSDiva (version 8.0.1, BD Biosciences) and FlowJo (version 7.6.5, BD Biosciences).

GPX2 [1] = assay: IHC protein expression analysis of organoids; details: immediately after 300 nM SN-38 treatment; expression continued on day 2 of regrowth; FIG. 11
Method: (§1) The protein expression of GPX1 (Uniprot ID: P07203, Refseq accession No. NP_000572) and GPX2 (Uniprot ID: P18283, Refseq accession No. NP_002074) was analyzed by IHC. Using an anti-GPX1 antibody (Cat #ab22604, Abcam, 0.5 ng/mL) and an anti-GPX2 antibody (Cat #ab137431, Abcam, 0.5 ng/mL) with the Envision system (Cat #K4003, Agilent) and peroxidase-diaminobenzidine reaction, the organoids of Example 1-1 (day 10), the SN-38-treated organoids of Example 2-1, and the regrowing organoids of Example 2-1 (day 2, day 6) were each stained. The results of IHC analysis confirmed that the expression of GPX1 and GPX2 increased immediately after the treatment with SN-38 and expression continued even on day 2 of regrowth (FIG. 11).

GPX1 [2] = assay: IHC protein expression analysis of organoids; details: immediately after 300 nM SN-38 treatment; expression continued on day 2 of regrowth; FIG. 11
Method: as §1

PLR123 organoids [3] = assay: Pathological (structural) analysis of organoids after SN-38 treatment; details: after 300 nM SN-38 for three days; new luminal structure formed from surviving cells during re-culture; FIG. 7
Method: In order to observe the structure of the organoids produced in Example 1-1 in detail, a pathological analysis was performed according to a previous report (J. Toxicol. Pathol. 31, 81-85 (2018)). Specifically, after removing the culture supernatant from each of the three-dimensional cultures (day 7, day 10, day 12, and day 13), 4% paraformaldehyde/phosphate buffer (Cat #09154-14, Nacalai Tesque) was added, and fixation was carried out at room temperature for 30 minutes. Matrigel was decomposed by pipetting, and organoids were collected in a centrifuge tube and washed. Subsequently, the organoids were suspended in a warmed 2% aqueous agarose solution (agarose, Type IX, Cat #A5030, Merck), centrifuged, and then cooled on ice to gel the agarose. This was treated by the AMeX method and embedded in paraffin. Paraffin blocks were sliced and stained with hematoxylin and eosin (HE) or Alcian blue-Periodic acid-Schiff (AB-PAS) by standard methods. Further, anti-LGR5 antibody (clone 2U2E-2 (Stem Cells, 30, 2631-2644 (2012))) and anti-Ki-67 antibody (clone MIB-1, Cat #M7240, Agilent) were used for immunofluorescent staining of the paraffin block sections. […]
The structure of the regrowing organoids was analyzed by pathological analysis in the same manner as in Example 1-3. […]

GPX2 [4] = assay: RNA-seq gene expression analysis of SN-38-treated organoids; details: organoids day 10 treated with 300 nM SN-38 for three days vs untreated organoids; n=3, FIG. 10
Method: (§2) The gene expression of the organoids prepared in Example 1-1 was analyzed by RNA-seq. First, total RNA was prepared from 2D-cultured cells and 3D-cultured organoids (day 10) cultured in Example 1-1 using TRIzol Reagent (Cat #15596018, Thermo Fisher Scientific). The quality of the purified total RNA was verified through RNA integrity number (RIN) measured using an Agilent 2100 Bioanalyzer (Agilent) to confirm that the RIN was greater than 9. Next, cDNAs were synthesized and amplified from 1 ng of total RNA using the SMART-Seq v4 Ultra Low Input RNA Kit for Sequencing (Takara Bio). Subsequently, a library was prepared using the Nextera XT DNA Library Prep kit (Illumina), and sequenced at 75 bp paired-end reads using the NextSeq500 system (Illumina). The obtained sequence information was mapped to NCBI RefSeq transcript sequence using RSEM software (v1.2.31), and the gene expression level was calculated by FPKM (Fragments Per Kilobase of exon model per Million mapped reads).
(§3) Gene expression analysis was performed on the organoids of Example 1-1 (day 10) and the SN-38-treated organoids of Example 2-1 using RNA-seq in the same manner as in Example 1-2 (n=3).

GPX1 [5] = assay: as above; details: organoids day 10 treated with 300 nM SN-38 for three days vs untreated organoids; n=3, FIG. 10
Method: as §2, §3

PLR123 organoids [6] = assay: Regrowth of SN-38-treated PLR123 organoids on re-culture, CellTiter-Glo 3D Cell Viability Assay; details: BSO 200 μM and/or AUR 200 nM added upon re-culture of SN-38-treated organoids; n=4, FIG. 13
Method: Specifically, 7-ethyl-10-hydroxycamptothecin (SN-38, Cat #H0165, Merck) was added to the organoids (day 10) prepared in Example 1-1 at a concentration of 300 nM and culture was carried out for three days (SN-38 treatment). After culturing, organoids were recovered by decomposing Matrigel with Dispase I (Cat #386-02271, Fujifilm Wako Pure Chemical Corporation), washed with Cellotion (Cat #CB051, Nippon Zenyaku Kogyo Co., Ltd.), and the washed organoids were suspended in a new Matrigel and dispensed at 20 μL/well into a 96-well plate in which 20-30 μL/well of Matrigel was gelled beforehand. By centrifuging immediately after dispensing, the organoids were aligned on a single plane, making it easier to observe under a microscope. After gelling Matrigel at 37° C., 200 μL/well of an organoid culture medium (Example 1-1) was added and re-culture was carried out at 37° C. in a 5% CO2 environment.
In order to confirm the contribution of GPX1 and GPX2 towards the regrowth of organoids, the gamma-glutamylcysteine synthetase inhibitor L-buthionine-sulfoximine (BSO, Cat #B2515, Merck, 200 μM) and the thioredoxin reductase inhibitor auranofin (AUR, Cat #A6733, Merck, 200 nM) were added upon re-culture in the re-culture method of Example 2-1, and cell proliferation was measured by CellTiter-Glo 3D Cell Viability Assay (FIG. 12).

SMILES | LGR5 expression (FACS) (LGR5) | protein expression of GPX2 (IHC) (GPX2 [1]) | protein expression of GPX1 (IHC) (GPX1 [2]) | organoid structure (PLR123 organoids [3]) | expression of GPX2 (RNA-seq) (GPX2 [4]) | expression of GPX1 (RNA-seq) (GPX1 [5]) | organoid regrowth (cell proliferation) (PLR123 organoids [6])
CCc1c2c(nc3ccc(O)cc13)-c1cc3c(c(=O)n1C2)COC(=O)[C@]3(O)CC [SN-38, 7-ethyl-10-hydroxycamptothecin] | almost no LGR5 expression was observed | increased | increased | once disrupted | increased by two-fold or more | increased by two-fold or more | –
CC(=O)OC[C@H]1O[C@@H]([S-])[C@H](OC(C)=O)[C@@H](OC(C)=O)[C@@H]1OC(C)=O.CCP(CC)CC.[Au+] [AUR, auranofin] | – | – | – | – | – | – | suppressed only when both inhibitors were used in combination
CCCCS(=N)(=O)CCC(N)C(=O)O [BSO, L-buthionine-sulfoximine] | – | – | – | – | – | – | suppressed only when both inhibitors were used in combination
